In patent US8968750B2, “Malaria vaccines based on apicomplexan ferlins, ferlin-like proteins and other C2-domain containing proteins” (Ruprecht-Karls-Universität Heidelberg, priority 2009, dated 2015):

System: peripheral blood mononuclear cells (PBMC)
Assay: cultured IFNγ ELISpot over 10 days with PBMCs stimulated with Pf Ferlin epitopes
Type: cell-based, human
Protocol: Each epitope was tested both individually and in pools of epitopes, which is summarised in this figure. Freshly isolated PBMCs from the blood of malaria-exposed and non-exposed (naïve) individuals were stimulated with the Pf Ferlin epitopes. The secretion of IFNγ was analysed by ELISpot. Pf AMA1, a known malarial blood stage antigen, was used as a positive control (FIG. 12B).
In order to investigate the presence of Pf Ferlin-specific T cells in malaria-exposed individuals, T-cell responses to Pf Ferlin peptides (NLLDPLVVV (SEQ ID NO:4), YLYVNIHKI (SEQ ID NO:5), LLLEGNFYL (SEQ ID NO:6), KLIPVNYEL (SEQ ID NO:7), YLYEKQQEL (SEQ ID NO:8), ILIPSLPLI (SEQ ID NO:9)) were tested in semi-immune Kenyan adults in collaboration with Dr. Britta urban at the Kenyan Medical Research Institute-Wellcome Trust Research Programme (KEMRI). All adults are resident in Junju District, about 60 km north of Mombasa at the Kenyan coast. The area has two high transmission seasons but low-level transmission occurs all year round (infectious bites per year:23-53) (Mwangi et al., 2005).
In order to determine the production of antigen-specific IFNγ by activated peripheral blood mononuclear cells (PBMC), cultured ELISpot analysis was carried out over a period of 10 days in malaria-exposed adults and malaria-naïve individuals. […] Furthermore, when studying the production of antigen-specific IFN-γ by activated peripheral blood mononuclear cells (PBMC) in 12 malaria-exposed adults and 5 malaria-naive individuals, Pf Ferlin-specific T cells were detected to at least one peptide in 4 out of 12 and to more than one peptide in 3 out of 12 malaria-exposed adults (Table 2).

ILIPSLPLI (listed as Plasmodium falciparum) [Epitope 6]
INFγ response to individual peptide (responder) (Patient Ad): no (An INFγ response above SFC 500 identified the patient as a responder.)
INFγ response to individual peptide (responder) (Patient Fr): no (An INFγ response above SFC 500 identified the patient as a responder.)
INFγ response to individual peptide (responder) (Patient JA029): no (An INFγ response above SFC 500 identified the patient as a responder.)
INFγ response to individual peptide (responder) (Patient JA030): yes (An INFγ response above SFC 500 identified the patient as a responder.)
INFγ response to individual peptide (responder) (Patient JA046): no (An INFγ response above SFC 500 identified the patient as a responder.)
INFγ response to individual peptide (responder) (Patient JA047): no (An INFγ response above SFC 500 identified the patient as a responder.)
INFγ response to individual peptide (responder) (Patient JA066): no (An INFγ response above SFC 500 identified the patient as a responder.)
INFγ response to individual peptide (responder) (Patient JA067): no (An INFγ response above SFC 500 identified the patient as a responder.)
INFγ response to individual peptide (responder) (Patient JA086): no (An INFγ response above SFC 500 identified the patient as a responder.)

KLIPVNYEL (listed as Plasmodium falciparum) [Epitope 4]
INFγ response to individual peptide (responder) (Patient Ad): no (An INFγ response above SFC 500 identified the patient as a responder.)
INFγ response to individual peptide (responder) (Patient Fr): no (An INFγ response above SFC 500 identified the patient as a responder.)
INFγ response to individual peptide (responder) (Patient JA006): no (An INFγ response above SFC 500 identified the patient as a responder.)
INFγ response to individual peptide (responder) (Patient JA007): no (An INFγ response above SFC 500 identified the patient as a responder.)
INFγ response to individual peptide (responder) (Patient JA029): no (An INFγ response above SFC 500 identified the patient as a responder.)
INFγ response to individual peptide (responder) (Patient JA030): yes (An INFγ response above SFC 500 identified the patient as a responder.)
INFγ response to individual peptide (responder) (Patient JA046): no (An INFγ response above SFC 500 identified the patient as a responder.)
INFγ response to individual peptide (responder) (Patient JA047): no (An INFγ response above SFC 500 identified the patient as a responder.)
INFγ response to individual peptide (responder) (Patient JA066): no (An INFγ response above SFC 500 identified the patient as a responder.)
INFγ response to individual peptide (responder) (Patient JA067): no (An INFγ response above SFC 500 identified the patient as a responder.)
INFγ response to individual peptide (responder) (Patient JA086): yes (An INFγ response above SFC 500 identified the patient as a responder.)

LLLEGNFYL (listed as Plasmodium falciparum) [Epitope 3]
INFγ response to individual peptide (responder) (Patient Ad): no (An INFγ response above SFC 500 identified the patient as a responder.)
INFγ response to individual peptide (responder) (Patient Fr): no (An INFγ response above SFC 500 identified the patient as a responder.)
INFγ response to individual peptide (responder) (Patient JA006): no (An INFγ response above SFC 500 identified the patient as a responder.)
INFγ response to individual peptide (responder) (Patient JA029): yes (An INFγ response above SFC 500 identified the patient as a responder.)
INFγ response to individual peptide (responder) (Patient JA030): no (An INFγ response above SFC 500 identified the patient as a responder.)
INFγ response to individual peptide (responder) (Patient JA046): no (An INFγ response above SFC 500 identified the patient as a responder.)
INFγ response to individual peptide (responder) (Patient JA047): no (An INFγ response above SFC 500 identified the patient as a responder.)
INFγ response to individual peptide (responder) (Patient JA066): no (An INFγ response above SFC 500 identified the patient as a responder.)
INFγ response to individual peptide (responder) (Patient JA067): no (An INFγ response above SFC 500 identified the patient as a responder.)
INFγ response to individual peptide (responder) (Patient JA086): yes (An INFγ response above SFC 500 identified the patient as a responder.)

NLLDPLVVV (listed as Plasmodium falciparum) [Epitope 1]
INFγ response to individual peptide (responder) (Patient Ad): yes (An INFγ response above SFC 500 identified the patient as a responder.)
INFγ response to individual peptide (responder) (Patient Fr): no (An INFγ response above SFC 500 identified the patient as a responder.)
INFγ response to individual peptide (responder) (Patient JA006): no (An INFγ response above SFC 500 identified the patient as a responder.)
INFγ response to individual peptide (responder) (Patient JA007): no (An INFγ response above SFC 500 identified the patient as a responder.)
INFγ response to individual peptide (responder) (Patient JA029): yes (An INFγ response above SFC 500 identified the patient as a responder.)
INFγ response to individual peptide (responder) (Patient JA030): no (An INFγ response above SFC 500 identified the patient as a responder.)
INFγ response to individual peptide (responder) (Patient JA046): no (An INFγ response above SFC 500 identified the patient as a responder.)
INFγ response to individual peptide (responder) (Patient JA047): no (An INFγ response above SFC 500 identified the patient as a responder.)
INFγ response to individual peptide (responder) (Patient JA066): no (An INFγ response above SFC 500 identified the patient as a responder.)
INFγ response to individual peptide (responder) (Patient JA067): no (An INFγ response above SFC 500 identified the patient as a responder.)
INFγ response to individual peptide (responder) (Patient JA086): no (An INFγ response above SFC 500 identified the patient as a responder.)
INFγ response to individual peptide (responder) (Patient JA087): no (An INFγ response above SFC 500 identified the patient as a responder.)

YLYEKQQEL (listed as Plasmodium falciparum) [Epitope 5]
INFγ response to individual peptide (responder) (Patient Ad): no (An INFγ response above SFC 500 identified the patient as a responder.)
INFγ response to individual peptide (responder) (Patient Fr): no (An INFγ response above SFC 500 identified the patient as a responder.)
INFγ response to individual peptide (responder) (Patient JA006): no (An INFγ response above SFC 500 identified the patient as a responder.)
INFγ response to individual peptide (responder) (Patient JA029): no (An INFγ response above SFC 500 identified the patient as a responder.)
INFγ response to individual peptide (responder) (Patient JA030): yes (An INFγ response above SFC 500 identified the patient as a responder.)
INFγ response to individual peptide (responder) (Patient JA046): no (An INFγ response above SFC 500 identified the patient as a responder.)
INFγ response to individual peptide (responder) (Patient JA047): no (An INFγ response above SFC 500 identified the patient as a responder.)
INFγ response to individual peptide (responder) (Patient JA086): no (An INFγ response above SFC 500 identified the patient as a responder.)

YLYVNIHKI (listed as Plasmodium falciparum) [Epitope 2]
INFγ response to individual peptide (responder) (Patient Ad): no (An INFγ response above SFC 500 identified the patient as a responder.)
INFγ response to individual peptide (responder) (Patient Fr): no (An INFγ response above SFC 500 identified the patient as a responder.)
INFγ response to individual peptide (responder) (Patient JA006): no (An INFγ response above SFC 500 identified the patient as a responder.)
INFγ response to individual peptide (responder) (Patient JA029): yes (An INFγ response above SFC 500 identified the patient as a responder.)
INFγ response to individual peptide (responder) (Patient JA030): no (An INFγ response above SFC 500 identified the patient as a responder.)
INFγ response to individual peptide (responder) (Patient JA046): no (An INFγ response above SFC 500 identified the patient as a responder.)
INFγ response to individual peptide (responder) (Patient JA047): no (An INFγ response above SFC 500 identified the patient as a responder.)
INFγ response to individual peptide (responder) (Patient JA066): no (An INFγ response above SFC 500 identified the patient as a responder.)
INFγ response to individual peptide (responder) (Patient JA067): no (An INFγ response above SFC 500 identified the patient as a responder.)
INFγ response to individual peptide (responder) (Patient JA086): no (An INFγ response above SFC 500 identified the patient as a responder.)
